Converted amounts (≈) assume the structure as drawn. “And” between values parts separate entries of the source, which are not always exact repeats. Identical values can stand only once. Like-named read-outs stand apart in the source and are kept apart here.
What was measured:
[1] = Stability test in acidic hydrochloric acid solution (pH 2), residual ratio by HPLC; type: physicochemical; conditions: for Residual ratio at pH 2: pH 2 HCl, 37° C.; for Stability in acid (residual ratio at pH = 2: %): Table 8 summary, time not stated
Protocol: A test for the stability of thioether compounds (hereinafter, referred to SH-form) and sulfoxide compounds (hereinafter, referred to SO-form) at pH 2.0 was carried out. (Method) Each of the specimens produced in Examples 1 to 3 and Reference Examples 6 to 8 (sulfinyl products of Examples 1 to 3) was maintained in a solution adjusted to pH 2 with 0.5 or 1.0 mmol/L HCl (37° C.) for a predetermined time period. Subsequently, the solution was adjusted to pH 8 with triethylamine, and then an HPLC analysis was performed to calculate the residual ratio.

[2] = system: Helicobacter pylori standard strain ATCC 43504; assay: Antibacterial potency test (MIC), Columbia agar medium, Pharmacological Test Example 1; type: cell-based
Protocol: A test was conducted to see whether there is a difference in the anti-Helicobacter pylori activity depending on the number of carbon atoms of the linear alkyl group for a substituent at the 4-position of the pyridine ring.
For the bacterium Helicobacter pylori, a standard strain ATCC 43504 was used to perform in vitro tests in Columbia agar medium. Each of the specimens was dissolved in a 1% DMSO solution, and the bacteria were cultured at 37° C. and pH 7.0 for 3 days. On the 4th day, the minimum growth inhibitory concentration (MIC, μg/ml) was determined.

[3] = system: Helicobacter pylori standard strains ATCC 43504, ATCC 43629, ATCC 43570 and clinically separated strains; assay: Anti-Helicobacter pylori activity (MIC), standard and clinically separated strains, Pharmacological Test Example 2; type: cell-based
Protocol: For the bacterium Helicobacter pylori, standard strains ATCC 43504, ATCC 43629 and ATCC 43570 were used to perform in vitro tests in Columbia agar medium. The bacteria were cultured at 37° C. and pH 7.0 for 3 days. On the 4th day, the minimum growth inhibitory concentration (MIC, μg/ml) was determined. Each of the specimens was dissolved in a 1% DMSO solution. Furthermore, amoxicillin and clarithromycin were used as control drugs of antibacterial substance. Further, the compound described in the article of Thomas C. Kuehler (J. Med.

[4] = system: clinically separated clarithromycin-resistant strains and amoxicillin-insensitive strains of Helicobacter pylori; assay: Antibacterial potency (MIC) against clarithromycin-resistant and amoxicillin-insensitive strains, Pharmacological Test Example 3; type: cell-based; conditions: Helicobacter pylori, read-out: MIC
Protocol: A test was conducted on the antibacterial potency of the compounds of the present invention against the clarithromycin-resistant strains and amoxicillin-insensitive strains of the bacterium Helicobacter pylori.
A test was conducted on the antibacterial potency of the compounds of the present invention, using clinically separated clarithromycin-resistant strains and amoxicillin-insensitive strains of the bacterium Helicobacter pylori. For the respective strains, in vitro tests were performed in Columbia agar medium. Each of the specimens was dissolved in a 1% DMSO solution. The bacteria were cultured at 37° C. and pH 7.0 for 3 days, and on the 4th day, the minimum growth inhibitory concentration (MIC, μg/ml) was determined.

[5] = system: Salmonella typhimurium (ATCC 13311); assay: Antibacterial test (MIC), Gram-negative bacteria; type: cell-based; conditions: Salmonella enterica, read-out: MIC
Source text: (§1) As for the Gram-negative bacteria, E. coli (ATCC 10536, ATCC 25922), Klebsiella pneumonia (ATCC 10031), Proteus vulgaris (ATCC 13315), Pseudomonas aeruginosa (ATCC 9027), and Salmonella typhimurium (ATCC 13311) were used, and as for the Gram-positive bacteria, Staphylococcus aureus, MRSA (ATCC 33591), Staphylococcus epidermidis (ATCC 12228), Streptococcus pneumonia (ATCC 6301), Mycobacterium ranae (ATCC 110), and Enterococcus faecalis (VRE, ATCC 51575) were used. The various bacteria were cultured at 37° C. for 20 to 48 hours by conventional methods, and the minimum growth inhibitory concentration (MIC, μg/ml) was determined. Each of the specimens was dissolved in a 1% DMSO solution. Furthermore, amoxicillin, clarithromycin and gentamycin were used as control drugs of antibacterial substance.

[6] = system: Enterococcus faecalis (VRE, ATCC 51575); assay: Antibacterial test (MIC), Gram-positive bacteria; type: cell-based
Source text: as §1

[7] = system: Mycobacterium ranae (ATCC 110); assay: Antibacterial test (MIC), Gram-positive bacteria; type: cell-based; conditions: ATCC110, read-out: MIC
Source text: as §1

[8] = system: Staphylococcus aureus, MRSA (ATCC 33591); assay: Antibacterial test (MIC), Gram-positive bacteria; type: cell-based; conditions: read-out: MIC
Source text: as §1

[9] = system: Staphylococcus epidermidis (ATCC 12228); assay: Antibacterial test (MIC), Gram-positive bacteria; type: cell-based; conditions: ATCC12228, read-out: MIC
Source text: as §1

[10] = system: Streptococcus pneumonia (ATCC 6301); assay: Antibacterial test (MIC), Gram-positive bacteria; type: cell-based; conditions: Streptococcus pneumoniae, ATCC6301
Source text: as §1

[11] = system: Helicobacter pylori bacteria (ATCC 43504); assay: Antiulcer action and bacteria eradicating action in Helicobacter pylori-infected Mongolian gerbils; type: in vivo; conditions: for Number of Bacteria (average) (log CFU): gastric mucosa; for responders at 30 mg/kg / responders at 10 mg/kg: Helicobacter pylori
Protocol: Mongolian gerbils were experimentally infected with Helicobacter pylori bacteria, and the antiulcer action and the Helicobacter pylori bacteria eradicating action of the compounds of the present invention were tested.
Male Mongolian gerbils (30 to 40 g), five animals in each group, were orally inoculated with Helicobacter pylori bacteria (ATCC 43504) at 1.6×10^7 CFU/0.5 ml/mouse, and bred for one week, and then drug was administered two times a day for two weeks. Thereafter, the […] were bred for three weeks, and then the rats were fasted for 18 hours and subjected to abdominal section, followed by autopsy. The severity of gastric ulcer, the number of Helicobacter pylori bacteria in the gastric mucosa, and the antibody titer were measured.

gastric acid secretion = assay: Gastric acid secretion inhibiting action, pylorus ligation in rats; type: in vivo, SD rats; conditions: 30 mg/kg to the duodenum, 4 hours after pylorus ligation, average
Protocol: The gastric acid secretion inhibiting action of the compounds of the present invention was tested. A group of five animals of male SD rats (about 200 g) were used, and the medicaments were respectively dissolved in 0.5% CMC and were all administered to the duodenum respectively at 30 mg/kg. The rats were fasted overnight from the day before the administration of the test substance to the point of administration, and pylorus ligation was performed.

[12] = ATCC43504, 72 h, ATCC 43504, 37° C., pH 7.0, 3 days, read-out: MIC
[13] = ATCC43504, Table 8 summary, strain not stated, read-out: Anti-HP activity (MIC: μg/mL)
[14] = Clinically separated strain PT1045482
[15] = Clinically separated strain PT1045483
[16] = Clinically separated strain PT1045484
[17] = 30 mg/kg, two times a day for two weeks
[18] = ATCC43504, 336 h, 30 mg/kg, two times a day for two weeks, read-out: Eradication rate (%)
[19] = ATCC43504, Table 8, amount of administration (mg) 30, read-out: HP eradication based on Mongolian gerbil infection model: Eradication rate (%)

| Compound | Residual ratio at pH 2 ([1]; 0 min) [%] | Residual ratio at pH 2 ([1]; 30 min) [%] | Residual ratio at pH 2 ([1]; 2 hours) [%] | Stability in acid (residual ratio at pH = 2: %) [1] [%] | MIC [2, 12] [µg/mL] | MIC [2, 13] [µg/mL] | MIC [3, 14] [µg/mL] | MIC [3, 15] [µg/mL] | MIC [3, 16] [µg/mL] | MIC ([3]; Standard strain ATCC 43504) [µg/mL] | MIC ([3]; Standard strain ATCC 43570) [µg/mL] | MIC ([3]; Standard strain ATCC 43629) [µg/mL] | MIC ([4]; AMO-insensitive strain NO. 1) [µg/mL] | MIC ([4]; AMO-insensitive strain NO. 2) [µg/mL] | MIC ([4]; AMO-insensitive strain NO. 3) [µg/mL] | MIC ([4]; AMO-insensitive strain NO. 4) [µg/mL] | MIC ([4]; CAM-resistant strain NO. 1) [µg/mL] | MIC ([4]; CAM-resistant strain NO. 2) [µg/mL] | MIC ([4]; CAM-resistant strain NO. 3) [µg/mL] | MIC ([4]; CAM-resistant strain NO. 4) [µg/mL] | also measured |
| --- | --- | --- | --- | --- | --- | --- | --- | --- | --- | --- | --- | --- | --- | --- | --- | --- | --- | --- | --- | --- | --- |
| CCCCCCCOc1ccnc(CSc2nc3ccccc3[nH]2)c1C [Example 3, 2-[(4-n-heptyloxy-3-methylpyridin-2-yl)-methylthio]-1H-benzimidazole] | 100 | 100 | 100 | 100 | 0.1 (≈ 0.271 µM) | 0.1 (≈ 0.271 µM) | 0.1 (≈ 0.271 µM) | 0.1 (≈ 0.271 µM) | 0.1 (≈ 0.271 µM) | 0.1 (≈ 0.271 µM) | 0.1 (≈ 0.271 µM) | 0.1 (≈ 0.271 µM) | 0.12 (≈ 0.325 µM) | 0.12 (≈ 0.325 µM) | 0.12 (≈ 0.325 µM) | 0.25 (≈ 0.677 µM) | 0.1 (≈ 0.271 µM) | 0.1 (≈ 0.271 µM) | 0.1 (≈ 0.271 µM) | 0.1 (≈ 0.271 µM) | MIC [5]: > 100 µg/mL; MIC [6]: > 100 µg/mL; MIC [7]: > 100 µg/mL; MIC [8]: > 100 µg/mL; MIC [9]: > 100 µg/mL; MIC [10]: > 100 µg/mL; Antibody titer (average) ([11]; 30 mg/kg): 0.22; Number of Bacteria (average) (log CFU) ([11]; 30 mg/kg): <3 log CFU; Number of Ulcers discovered [11, 17]: 0/5; responders at 30 mg/kg [11, 18]: 100%; responders at 30 mg/kg [11, 19]: 100%; Gastric acid secretion inhibiting action: Amount of gastric acid (gastric acid secretion): 44%; Gastric acid secretion inhibiting action: Amount of gastric acid secretion (gastric acid secretion): 70%; Gastric acid secretion inhibiting action: Total acidity (gastric acid secretion): 44% |
| CCCCCOc1ccnc(CSc2nc3ccccc3[nH]2)c1C [Example 1, 2-[(4-n-pentyloxy-3-methylpyridin-2-yl)-methylthio]-1H-benzimidazole] | 100 | 100 | 100 | 100 | 0.1 (≈ 0.293 µM) | 0.1 (≈ 0.293 µM) | 0.1 (≈ 0.293 µM) | 0.06 (≈ 0.176 µM) | 0.06 (≈ 0.176 µM) | 0.1 (≈ 0.293 µM) | < 0.015 | 0.06 (≈ 0.176 µM) | 0.06 (≈ 0.176 µM) | 0.06 (≈ 0.176 µM) | 0.06 (≈ 0.176 µM) | 0.06 (≈ 0.176 µM) | 0.06 (≈ 0.176 µM) | 0.06 (≈ 0.176 µM) | 0.06 (≈ 0.176 µM) | 0.06 (≈ 0.176 µM) | MIC [5]: > 100 µg/mL; MIC [6]: > 100 µg/mL; MIC [7]: > 100 µg/mL; MIC [8]: > 100 µg/mL; MIC [9]: > 100 µg/mL; MIC [10]: > 100 µg/mL; Antibody titer (average) ([11]; 10 mg/kg): 0.07; Number of Bacteria (average) (log CFU) ([11]; 10 mg/kg): <3 log CFU; Number of Ulcers discovered ([11]; 10 mg/kg, two times a day for two weeks): inhibited generation of ulcer and 0/5; Antibody titer (average) ([11]; 30 mg/kg): 0.05; Number of Bacteria (average) (log CFU) ([11]; 30 mg/kg): <3 log CFU; Number of Ulcers discovered [11, 17]: 0/5; responders at 10 mg/kg ([11]; ATCC43504, 336 h, 10 mg/kg, two times a day for two weeks, read-out: Eradication rate (%)): 100%; responders at 30 mg/kg [11, 18]: 100%; responders at 10 mg/kg ([11]; ATCC43504, Table 8, amount of administration (mg) 10, read-out: HP eradication based on Mongolian gerbil infection model: Eradication rate (%)): 100%; Gastric acid secretion inhibiting action: Amount of gastric acid (gastric acid secretion): 57%; Gastric acid secretion inhibiting action: Amount of gastric acid secretion (gastric acid secretion): 82%; Gastric acid secretion inhibiting action: Total acidity (gastric acid secretion): 60% |
| CCCCCCOc1ccnc(CSc2nc3ccccc3[nH]2)c1C [Example 2, 2-[(4-n-hexyloxy-3-methylpyridin-2-yl)-methylthio]-1H-benzimidazole] | 100 | 100 | 100 | 100 | 0.1 (≈ 0.281 µM) | 0.1 (≈ 0.281 µM) | 0.1 (≈ 0.281 µM) | 0.1 (≈ 0.281 µM) | 0.1 (≈ 0.281 µM) | 0.1 (≈ 0.281 µM) | 0.03 (≈ 0.0844 µM) | 0.1 (≈ 0.281 µM) | 0.06 (≈ 0.169 µM) | 0.12 (≈ 0.338 µM) | 0.12 (≈ 0.338 µM) | 0.12 (≈ 0.338 µM) | 0.06 (≈ 0.169 µM) | 0.06 (≈ 0.169 µM) | 0.06 (≈ 0.169 µM) | 0.06 (≈ 0.169 µM) | MIC [5]: > 100 µg/mL; MIC [6]: > 100 µg/mL; MIC [7]: > 100 µg/mL; MIC [8]: > 100 µg/mL; MIC [9]: > 100 µg/mL; MIC [10]: > 100 µg/mL; Antibody titer (average) ([11]; 30 mg/kg): 0.17; Number of Bacteria (average) (log CFU) ([11]; 30 mg/kg): <3 log CFU; Number of Ulcers discovered [11, 17]: 0/5; responders at 30 mg/kg [11, 18]: 100%; responders at 30 mg/kg [11, 19]: 100%; Gastric acid secretion inhibiting action: Amount of gastric acid (gastric acid secretion): 44%; Gastric acid secretion inhibiting action: Amount of gastric acid secretion (gastric acid secretion): 65%; Gastric acid secretion inhibiting action: Total acidity (gastric acid secretion): 34% |
